Reference: article PMC8869984, “Multifunctional Silver(I) Complexes with Metronidazole Drug Reveal Antimicrobial Properties and Antitumor Activity against Human Hepatoma and Colorectal Adenocarcinoma Cells” (Cancers, 2022)

Legend:
HepG2 cells = test: TPC assay (total protein content), 72 h exposure; format: cell-based, human; conditions: mean ± SD, n = 3
Method: The human hepatoma (HepG2) and colorectal adenocarcinoma (Caco-2) cells were purchased from the American Type Culture Collection: ATCC HB-8065 and ATCC HTB-37, respectively. These cells were cultured in Minimum Essential Medium Eagle (MEME) (ATCC). The murine fibroblasts cell line (Balb/c 3T3 clone A31) (gift from the Department of Swine Diseases of the National Veterinary Research Institute in Pulawy) was cultured in Dulbecco’s Modified Eagle Medium (DMEM) (ATCC). The media were supplemented with 10% BCS (Balb/c 3T3), 10% FBS (HepG2), 20% FBS (Caco-2), 1% L-glutamine, 1% antibiotic solution. The cells were maintained in 75 cm^2 cell culture flasks (NUNC) in a humidified incubator at 37 °C in an atmosphere of 5% CO2. The medium was refreshed every two or three days, and the cells were trypsinized by 0.25% trypsin–0.02% EDTA after reaching 70–80% confluence. Single cell suspensions were prepared and adjusted to a density of 2 × 10^5 cell/mL^−1 (HepG2), 1 × 10^5 cell/mL^−1 (Caco-2) and 5 × 10^4 cell/mL^−1 (Balb/c 3T3). The cell suspension was transferred to 96-well plates (100 µL/well) and incubated for 24 h before the exposure to the studied compounds. Stock solutions of ligands and metal complexes were prepared in sterile water and diluted with culture medium to obtain a concentration range from 0.1 to 10 µM. The final concentration of sterile water was 0.1% in the medium. […] As a negative control, cultured cells were grown in the absence of studied compounds. Each concentration was tested in six replicates in three independent experiments. Cytotoxicity was assessed after 72 h of exposure of the cells to compounds. The medium was not changed during the incubation time.
This assay is based upon staining the total cellular protein (proliferation). After the incubation, the medium containing the drug was removed, and 100 µL Coomassie brilliant blue R-250 dye was added to each well. The plate was shaken for 10 min. Then, the stain was removed and the cells were rinsed twice with 100 µL of washing solution (glacial acetic acid/ethanol/water, 5:10:85, v:v:v). After that, 100 µL of the desorbing solution (1 M potassium acetate) was added, and plates were shaken again for 10 min. The absorbance was measured at 595 nm in a microplate reader Synergy HTX multi-mode reader (BioTek® Instruments Inc., Winooski, VT, USA) using a blank as a reference. Cytotoxicity was expressed as a percentage of the negative control.
The study was performed in three independent experiments. The obtained results are presented as mean values ± SD (standard deviation). The assessment of the cytotoxicity data used a one-way analysis of variance (ANOVA) followed by Dunnett’s post hoc test, which was applied to determine significance relative to the negative control.

B. subtilis ATCC 6633 = test: micro-dilution broth method (MIC, MBC); format: cell-based, Bacillus subtilis
P. acnes ATCC 11827 = test: micro-dilution broth method (MIC, MBC); format: cell-based, Propionibacterium acnes
[1] = test system: C. perfringens ATCC 13124; test: microbe, parasite or virus in culture; format: cell-based, Clostridium perfringens
C. jejunii ATCC 33291 = test: micro-dilution broth method (MIC, MBC); format: cell-based, Campylobacter jejunii
H. pylori ATCC 43504 = test: micro-dilution broth method (MIC, MBC); format: cell-based
P. mirabilis ATCC 12453 = test: micro-dilution broth method (MIC, MBC); format: cell-based, Proteus mirabilis
K. pneumoniae ATCC 13883 = test: micro-dilution broth method (MIC, MBC); format: cell-based, Klebsiella pneumoniae
F. nucleatum ATCC 25586 = test: micro-dilution broth method (MIC, MBC); format: cell-based, Fusobacterium nucleatum
[2] = light stability in normal daylight, visual assessment; format: physicochemical
[3] = B. subtilis ATCC 6633, value in brackets
[4] = P. acnes ATCC 11827, value in brackets
[5] = C. perfringens ATCC 13124, value in brackets
[6] = C. jejunii ATCC 33291, value in brackets
[7] = H. pylori ATCC 43504, value in brackets
[8] = P. mirabilis ATCC 12453, value in brackets
[9] = K. pneumoniae ATCC 13883, value in brackets
[10] = F. nucleatum ATCC 25586, value in brackets

SMILES: O=S(=O)([O-])[O-].[Ag+].[Ag+] [Ag2SO4, silver sulfate]
- IC50 (HepG2 cells): > 10 µM
- MBC (B. subtilis ATCC 6633; B. subtilis ATCC 6633): 31.3 mg/L
- MIC (B. subtilis ATCC 6633; B. subtilis ATCC 6633): 31.3 mg/L
- MBC (B. subtilis ATCC 6633; [3]): 0.1 µM/mL
- MIC (B. subtilis ATCC 6633; [3]): 0.1 µM/mL
- MBC (P. acnes ATCC 11827; P. acnes ATCC 11827): 500 mg/L
- MIC (P. acnes ATCC 11827; P. acnes ATCC 11827): 125 mg/L
- MBC (P. acnes ATCC 11827; [4]): 1.6 µM/mL
- MIC (P. acnes ATCC 11827; [4]): 0.4 µM/mL
- MBC ([1]; C. perfringens ATCC 13124): 250 mg/L
- MIC ([1]; C. perfringens ATCC 13124): 250 mg/L
- MBC [1, 5]: 0.8 µM/mL
- MIC [1, 5]: 0.8 µM/mL
- MBC (C. jejunii ATCC 33291; C. jejunii ATCC 33291): > 1000 mg/L
- MIC (C. jejunii ATCC 33291; C. jejunii ATCC 33291): 1000 mg/L
- MBC (C. jejunii ATCC 33291; [6]): > 3.2 µM/mL
- MIC (C. jejunii ATCC 33291; [6]): 3.2 µM/mL
- MBC (H. pylori ATCC 43504; H. pylori ATCC 43504): 15.6 mg/L
- MIC (H. pylori ATCC 43504; H. pylori ATCC 43504): 15.6 mg/L
- MBC (H. pylori ATCC 43504; [7]): 0.05 µM/mL
- MIC (H. pylori ATCC 43504; [7]): 0.05 µM/mL
- MBC (P. mirabilis ATCC 12453; P. mirabilis ATCC 12453): 31.3 mg/L
- MIC (P. mirabilis ATCC 12453; P. mirabilis ATCC 12453): 31.3 mg/L
- MBC (P. mirabilis ATCC 12453; [8]): 0.1 µM/mL
- MIC (P. mirabilis ATCC 12453; [8]): 0.1 µM/mL
- MBC (K. pneumoniae ATCC 13883; K. pneumoniae ATCC 13883): 31.3 mg/L
- MIC (K. pneumoniae ATCC 13883; K. pneumoniae ATCC 13883): 31.3 mg/L
- MBC (K. pneumoniae ATCC 13883; [9]): 0.1 µM/mL
- MIC (K. pneumoniae ATCC 13883; [9]): 0.1 µM/mL
- MBC (F. nucleatum ATCC 25586; F. nucleatum ATCC 25586): 31.3 mg/L
- MIC (F. nucleatum ATCC 25586; F. nucleatum ATCC 25586): 31.3 mg/L
- MBC (F. nucleatum ATCC 25586; [10]): 0.1 µM/mL
- MIC (F. nucleatum ATCC 25586; [10]): 0.1 µM/mL
- time of exposure after which darkening began ([2]; 1.25 µmol applied on paper): 10 min
- time of exposure after which darkening began ([2]; 1.25 µmol applied on tissue paper): 30 min
- time to complete darkening ([2]; on both groundworks (paper, tissue paper)): 24 h
